# Read-outs that look alike come from different tables or passages of the source.
# Legend:
# [1] = tested on: L. donovani axenic amastigotes; test: Leishmania axenic amastigote viability assay; type: cell-based, Leishmania donovani; conditions: Leishmania donovani
# Experimental: carried out as described above using 5%, 10% and 20% FBS in the media. To examine the effect of the methionine concentration on the potency of DDD806905 parasites were grown in the presence of drug and in the presence (or absence) of 20-fold excess methionine (0.3 g/l). IC50 curve fitting was undertaken in GraFit version 6.0 (Erithacus Software) using a four-parameter logistic dose-response curve (equation 6), with s the slope.
# Leishmania Axenic Amastigote Assay
# The Leishmania axenic amastigote assay was performed using the method published in Nühs et al 15.
# Leishmania Intracellular Amastigote Assay
# The intramacrophage Leishmania assay was performed using a modified version of the method described in De Rycker et al 16. […]
# amphotericin B was included. Controls were as follows: columns 11 and 12: DMSO, columns 23 and 24: amphotericin B (final concentration 2 µM). 350 nl of compound was pre-dispensed into 384-well sterile intermediary plates. To the intermediary plates, 35 µl of THP-1 media was added and plates were shaken for >5 min to ensure complete mixing. THP-1 cells (8,000 per well, 50 µl) were plated into black clear-bottom 384-well plates (Corning) in presence of 20 nM phorbol 12-myristate 13- […]
# in a humidified incubator for 75 h. The cells were then washed with 450 µl sterile phosphate buffered saline (PBS) supplemented with 1 mM CaCl2, 0.5 mM MgCl2, 0.1% (w/v) bovine serum albumin (PBS-A) and amastigotes were added to all wells at a multiplicity of infection of 5 (40,000 amastigotes per well). After 40 min at room temperature, plates were returned to the incubator.
# Amastigotes were incubated in the presence of THP-1 macrophages for 16 h. Any remaining extracellular amastigotes were subsequently removed by washing with PBS-A followed by addition of 25 µl of the compound pre-dilutions using an Ipette-pro pipetting station (FluidX). The final dilution of each compound was 200-fold. Plates were incubated for 96 h and then washed (250 µl PBS-A) and fixed (4 % (v/v) formaldehyde-PBS, 30 min, room temperature). After fixation, the wells were washed with 250 µl PBS, stained (10 µg/ml DAPI, 0.4 µg/mL HCS Cellmask Deep Red in PBS + 0.1% (v/v) Triton X-100, 30 min, room temperature) and washed with 250 µl PBS. Finally, PBS + 0.05% (v/v) thimerosal was added to the wells, the plates were sealed and imaged on a high-content microscope (GE IN Cell 2000) using a 10x objective. Image analysis was carried out with GE IN Cell Analyzer 1000 Workstation using the “Multi Target Analysis” module. For each well, i) THP-1 cell count (cytotoxicity readout) and ii) average number of amastigotes per cell (potency readout) were […]
# THP-1 lysosomes = test: Lysosomotropism assay (LysoTracker Red competition); type: cell-based, human; conditions: PMA-differentiated THP-1 cells, 30 min
# Experimental: calculated, both in terms of pEC50 values. MIC (minimum inhibitory concentration) values are defined as the lowest concentration tested at which maximal inhibition is reached.
# THP-1 cells were differentiated in 96-well plates with PMA as described above. Following differentiation the cells were treated for 30 min with dose-response curves of test compounds in presence of 100 nM LysoTracker Red DND-99 (Thermo Fisher) and 5 µg/ml Hoechst 33342. Next cells were washed 3 times with Hanks Buffered Saline Solution (Gibco) and imaged on a Perkin Elmer Operetta system. An image analysis algorithm to measure mean Lysotracker Red DND-99 intensity per cell was developed in Columbus. Mean Intensity was normalised using a no dye control (100% effect) and DMSO treated wells stained with Lysotracker Red DND-99 (0% effect control). Dose-response curves were fitted for the test compounds using a four-parameter equation (equation 5 above) and constrained to 0 and 100% where necessary.
# To measure the pKa of DDD806905, a fast UV-metric method was performed using a Sirius T3 instrument (Sirius Analytical, U.K.). The calculation of the pKa was determined using the Sirius T3 refine software (Sirius Analytical, U.K.). In brief, the UV-metric pKa method is based on measuring pH during an acid-base titration and monitoring UV absorbance shift. The ionisation curve (Bjerrum curve) was then used to determine the pH where exactly 50 % of neutral and 50 % of ionised species was present. DDD806905 must be fully dissolved throughout the titration and so the titration is set to start at the pH where DDD806905 is in its fully ionised state. The appearance of precipitate was monitored throughout the experiment by a turbidity sensing device. […] The pKas of DDD806905 was determined at the pH where there was maximal change in UV absorbance with respect to pH. […]
# LogD7.4 values were quantified using a Sirius T3 instrument (Sirius Analytical, U.K.). […] The instrument software calculated the pH of each data point using mass and charge balance equations and then fitted this theoretical data to the experimental data. […]
# in vivo = conditions: female, Balb/c, mouse, iv
compound,measurement,setting,value
"Cl.Cl.O=c1nc(NCCCNCc2cc3c(Cl)cc(Cl)cc3[nH]2)[nH]c2ccccc12 [DDD806905, 2-((3-(((4,6-dichloro-1H-indol-2-yl)methyl)amino)propyl)amino)quinazolin-4(1H)-one dihydrochloride]",EC50,"[1]; Table 1, read-out: Leishmania Axenic Amastigote EC50",14 µM
same,EC50,"[1]; media pH 5.6, read-out: axenic amastigote EC50",13.7 µM
same,competition with lysotracker red accumulation in THP-1 lysosomes,THP-1 lysosomes,did compete with lysotracker red accumulation
same,Vd,in vivo,6 L/kg

# Reference: article PMC5663395, “Chemical Validation of Methionyl-tRNA Synthetase as a Druggable Target in Leishmania donovani” (ACS Infectious Diseases, 2017)
